For assay [1], the system named is TNFα production in LPS-stimulated human monocytes. The assay is described as follows: Cot Monocyte TNFα Cell Based Assay. The conditions noted are these: Homo sapiens, Monocyte, read-out: EC50 TNF. The essentials:
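Cells at 5,000/well were pretreated with compound for 1 h at 37 °C (0.5% DMSO final), then stimulated with 50 pg/ml LPS for 4 h at 37 °C. Supernatant TNFα was measured by two-antibody TR-FRET after overnight room-temperature incubation; values are percent of control between unstimulated and stimulated wells.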

For assay [2], the target named is T1, human Cot catalytic domain (30-397 amino acids) (Homo sapiens, UniProt P41279).
T1 construct: Purified recombinant human Cot catalytic domain (30-397 amino acids) was purchased from Cama Biosciences; purchased Cama Biosciences (so in the source)
Description: High Throughput Cot Biochemical Assay (KinEASE TR-FRET). The conditions noted are these: read-out: IC50 HTRF. An outline of the steps:
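Reaction of 5 nM recombinant human Cot catalytic domain (aa 30-397) with 1 μM STK3 peptide (XL665-labeled) and 400 μM ATP in 10 mM MOPS pH 7.0, 10 mM MgOAc, 1 mM DTT, 0.5 mg/mL BSA, 0.1% DMSO. Phosphopeptide detected by TR-FRET with europium anti-phospho antibody.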
A general note: Time-resolved FRET reads energy transfer from a long-lived donor to a nearby acceptor.

[3] abbreviates: TNFα in LPS-stimulated human monocytes.
The mark [4] stands for this setting: Cot biochemical HTRF (KinEASE TR-FRET) assay.
Where [5] appears, read: Cot KinEASE TR-FRET (HTRF) biochemical assay, 400 μM ATP.
[6] abbreviates: LPS-stimulated human monocytes, TNFα TR-FRET.
[7] abbreviates: Cot KinEASE TR-FRET, 400 μM ATP.

Like-named read-outs stand apart in the source and are kept apart here.

The source of these data is US10316017B2, “COT modulators and methods of use thereof” (Gilead Sciences, Inc., priority 2015, dated 2019).

A word on the EC50: it is the concentration that produces a half-maximal response. What is called IC50 is the concentration that gives 50% inhibition.

T1 sequence (P41279 30-397): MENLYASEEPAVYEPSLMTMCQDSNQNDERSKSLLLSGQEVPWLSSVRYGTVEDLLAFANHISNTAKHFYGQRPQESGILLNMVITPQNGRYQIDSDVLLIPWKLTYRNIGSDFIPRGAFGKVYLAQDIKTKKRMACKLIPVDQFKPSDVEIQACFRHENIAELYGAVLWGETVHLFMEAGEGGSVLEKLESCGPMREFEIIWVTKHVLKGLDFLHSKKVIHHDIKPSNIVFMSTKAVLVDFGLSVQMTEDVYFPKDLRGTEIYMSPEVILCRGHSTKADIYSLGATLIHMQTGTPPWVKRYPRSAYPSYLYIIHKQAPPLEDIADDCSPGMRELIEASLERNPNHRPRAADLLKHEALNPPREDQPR

Take `CC1(C)CC(n2cc([C@@H](Nc3cc(F)c4ncc(C#N)c(Nc5ccc(F)c(Cl)c5)c4c3)c3ccc(Cl)cc3)nn2)CC(C)(C)N1` [Example 707, (S)-4-((3-chloro-4-fluorophenyl)amino)-6-(((4-chlorophenyl)(1-(2,2,6,6-tetramethylpiperidin-4-yl)-1H-1,2,3-triazol-4-yl)methyl)amino)-8-fluoroquinoline-3-carbonitrile]: in assay [1] (setting [3]), the EC50 came to 3010 nM. The IC50 in assay [2] (setting [4]) amounted to 134 nM.

With `CC(C)(C)CNc1c(C#N)cnc2c(C#N)cc(N[C@@H](c3cccc(-c4ncco4)c3)c3cn(C4CC4)nn3)cc12` [Example 82, (S)-6-(((1-cyclopropyl-1H-1,2,3-triazol-4-yl)(3-(oxazol-2-yl)phenyl)methyl)amino)-4-(neopentylamino) quinoline-3,8-dicarbonitrile], the EC50 in assay [1] (setting [3]) stood at 183 nM. In addition, in assay [2] (setting [5]), the IC50 was determined as 1 nM.

Take `N#Cc1cnc2c(Cl)cc(N[C@@H](c3ccc(F)cc3)c3cn(CC4(F)COC4)nn3)cc2c1Nc1cnc(F)c(F)c1` [Example 405, (S)-8-chloro-4-((5,6-difluoropyridin-3-yl)amino)-6-(((1-((3-fluorooxetan-3-yl)methyl)-1H-1,2,3-triazol-4-yl)(4-fluorophenyl)methyl)amino) quinoline-3-carbonitrile]: the EC50 in assay [1] (setting [3]) was determined as 2300 nM. The IC50 in assay [2] (setting [4]) is 69 nM.

Take `N#Cc1cnc2c(Cl)cc(N[C@@H](c3ccc(F)cc3)c3cn(CCF)nn3)cc2c1Nc1cnc(F)c(F)c1` [Example 493, (S)-8-chloro-4-((5,6-difluoropyridin-3-yl)amino)-6-(((1-(2-fluoroethyl)-1H-1,2,3-triazol-4-yl)(4-fluorophenyl)methyl)amino) quinoline-3-carbonitrile]: in assay [1] (setting [3]), the EC50 turned out to be 1220 nM. Also, the IC50 in assay [2] (setting [4]) came out at 18 nM.

Turning to `[2H][C@](Nc1cc(Cl)c2ncc(C#N)c(NCCc3ccnn3C)c2c1)(c1ccc(F)cc1)c1cn(C2CC2)nn1` [Example 149, (S)-8-chloro-6-(((1-cyclopropyl-1H-1,2,3-triazol-4-yl)(4-fluorophenyl)methyl-d)amino)-4-((2-(1-methyl-1H-pyrazol-5-yl)ethyl)amino) quinoline-3-carbonitrile], the EC50 in assay [1] (setting [3]) worked out at 2110 nM. In addition, in assay [2] (setting [5]), the IC50 is 162 nM.

Take `CC[C@@H](Nc1c(C#N)cnc2c(Cl)cc(N[C@@H](c3c[nH]nn3)c3ccccc3Cl)cc12)c1ccccc1` [Example 532, 8-chloro-6-(((R)-(2-chlorophenyl)(1H-1,2,3-triazol-4-yl)methyl)amino)-4-(((R)-1-phenylpropyl)amino)quinoline-3-carbonitrile]: the EC50 in assay [1] (setting [3]) is more than 10000 nM. In addition, the IC50 in assay [2] (setting [4]) was more than 10000 nM.

With `N#Cc1cnc2c(Cl)cc(N[C@@H](c3ccc(F)cc3)c3c[nH]nn3)cc2c1NCC(F)(F)F` [Example 443, (S)-8-chloro-6-(((4-fluorophenyl)(1H-1,2,3-triazol-4-yl)methyl)amino)-4-((2,2,2-trifluoroethyl)amino) quinoline-3-carbonitrile], in assay [1] (setting [3]), the EC50 was more than 10000 nM. Also, the IC50 in assay [2] (setting [4]) was 2700 nM.

With `Cc1c([C@H](Nc2cc(Cl)c3ncc(C#N)c(NCC(C)(C)C)c3c2)c2cn(C3(C(F)(F)F)CC3)nn2)cccc1-n1nccn1` [Example 1039, (S)-8-chloro-6-(((2-methyl-3-(2H-1,2,3-triazol-2-yl)phenyl)(1-(1-(trifluoromethyl)cyclopropyl)-1H-1,2,3-triazol-4-yl)methyl)amino)-4-(neopentylamino)quinoline-3-carbonitrile], the EC50 in assay [1] (setting [6]) was found to be 496 nM. In addition, in assay [2] (setting [7]), the IC50 worked out at 19 nM.

For `[2H][C@](Nc1cc(Cl)c2ncc(C#N)c(N[C@H](CCOC)c3ccccc3)c2c1)(c1ccc(F)cc1)c1cn(C2CC2)nn1` [Example 925, 8-chloro-6-(((1-cyclopropyl-1H-1,2,3-triazol-4-yl)(4-fluorophenyl)methyl-d)amino)-4-(((R)-3-methoxy-1-phenylpropyl)amino)quinoline-3-carbonitrile], the EC50 in assay [1] (setting [6]) turned out to be 187 nM. The IC50 in assay [2] (setting [7]) was 10 nM.

In the case of `CC[C@@H](Nc1c(C#N)cnc2c(C#N)cc(N[C@@H](c3cccc(C(=O)NC)c3)c3cn(C4CC4)nn3)cc12)c1ccccc1` [Example 948, 3-((S)-(1-cyclopropyl-1H-1,2,3-triazol-4-yl) ((3,8-dicyano-4-(((R)-1-phenylpropyl)amino)quinolin-6-yl)amino)methyl)-N-methylbenzamide], the half-maximal effective concentration (EC50) in assay [1] (setting [6]) amounted to 78 nM. Further, the IC50 in assay [2] (setting [7]) was 1 nM.

In the case of `N#Cc1cnc2c(Cl)cc(N[C@@H](c3ccc(F)cc3)c3c[nH]nn3)cc2c1NCC1CCCCO1` (stereo partly drawn) [Example 436, 8-chloro-6-(((S)-(4-fluorophenyl)(1H-1,2,3-triazol-4-yl)methyl)amino)-4-(((tetrahydro-2H-pyran-2-yl)methyl)amino)quinoline-3-carbonitrile], in assay [1] (setting [3]), the EC50 amounted to 3030 nM. Besides, the IC50 in assay [2] (setting [4]) was found to be 1360 nM.

Consider `CC[C@@H](Nc1c(C#N)cnc2c(Cl)cc(N[C@@H](c3ccc(F)cc3)c3cn(C(C)C)nn3)cc12)c1ccccc1C` [Example 366, 8-chloro-6-(((S)-(4-fluorophenyl)(1-isopropyl-1H-1,2,3-triazol-4-yl)methyl)amino)-4-(((R)-1-(o-tolyl)propyl)amino)quinoline-3-carbonitrile], for which the EC50 in assay [1] (setting [3]) came out at 1300 nM. The IC50 in assay [2] (setting [5]) came out at 110 nM.

On to `C[C@@H](Nc1c(C#N)cnc2c(Cl)cc(N[C@@H](c3ccccc3)c3cn(C4CCN(C(C)(C)C)CC4)nn3)cc12)c1ccccc1F` [Example 619, 6-(((S)-(1-(1-(tert-butyl)piperidin-4-yl)-1H-1,2,3-triazol-4-yl)(phenyl)methyl)amino)-8-chloro-4-(((R)-1-(2-fluorophenyl)ethyl)amino) quinoline-3-carbonitrile], for which the EC50 in assay [1] (setting [3]) was 826 nM. For the same molecule, in assay [2] (setting [4]), the IC50 was 16 nM.

As for `[2H][C@](Nc1cc(Cl)c2ncc(C#N)c(NCC(C)(C)C#N)c2c1)(c1ccc(F)cc1)c1cn(C2CC2)nn1` [Example 299, (S)-8-chloro-4-((2-cyano-2-methylpropyl)amino)-6-(((1-cyclopropyl-1H-1,2,3-triazol-4-yl)(4-fluorophenyl)methyl-d)amino)quinoline-3-carbonitrile], the EC50 in assay [1] (setting [3]) amounted to 309 nM. Also, the IC50 in assay [2] (setting [5]) came out at 12 nM.

In the case of `CC(C)(C)CNc1c(C#N)cnc2c(C#N)cc(N[C@@H](c3ccc(F)cc3)c3cn(C4(C(N)=O)CC4)nn3)cc12` [Example 977, (S)-1-(4-(((3,8-dicyano-4-(neopentylamino)quinolin-6-yl)amino)(4-fluorophenyl)methyl)-1H-1,2,3-triazol-1-yl)cyclopropane-1-carboxamide], the EC50 in assay [1] (setting [6]) is 285 nM. Besides, the IC50 in assay [2] (setting [7]) is 6 nM.

Consider `[2H][C@](Nc1cc(Cl)c2ncc(C#N)c(NC(C)(C)CC)c2c1)(c1ccc(F)cc1)c1cn(C2CC2)nn1` [Example 282, (S)-8-chloro-6-(((1-cyclopropyl-1H-1,2,3-triazol-4-yl)(4-fluorophenyl)methyl-d)amino)-4-(tert-pentylamino) quinoline-3-carbonitrile], for which the EC50 in assay [1] (setting [3]) worked out at 525 nM. For the same molecule, the IC50 in assay [2] (setting [5]) is 39 nM.

With `[2H][C@](Nc1cc(Cl)c2ncc(C#N)c(NC3[C@H]4COC[C@@H]34)c2c1)(c1ccc(F)cc1)c1cn(C2CC2)nn1` (stereo partly drawn) [Example 142, 4-(((1R,5S)-3-oxabicyclo[3.1.0]hexan-6-yl)amino)-8-chloro-6-(((S)-(1-cyclopropyl-1H-1,2,3-triazol-4-yl)(4-fluorophenyl)methyl-d)amino)quinoline-3-carbonitrile], in assay [1] (setting [3]), the EC50 came out at 77 nM. The IC50 in assay [2] (setting [5]) was determined as 8 nM.

On to `[2H][C@](Nc1cc2c(NCC(C)(C)C)c(C#N)cnc2c(C)c1F)(c1ccc(F)cc1)c1cn(C2CC2)nn1` [Example 157, 6-(((1-cyclopropyl-1H-1,2,3-triazol-4-yl)(4-fluorophenyl)methyl-d)amino)-7-fluoro-8-methyl-4-(neopentylamino) quinoline-3-carbonitrile], for which the EC50 in assay [1] (setting [3]) was more than 10000 nM. The IC50 in assay [2] (setting [5]) was found to be 3740 nM.

Take `[2H][C@@](Nc1cc(Cl)c2ncc(C#N)c(NCC(C)(C)C)c2c1)(c1cn(C2CC2)nn1)c1cccc(C#N)c1C` [Example 197, (S)-8-chloro-6-(((3-cyano-2-methylphenyl) (1-cyclopropyl-1H-1,2,3-triazol-4-yl)methyl-d)amino)-4-(neopentylamino) quinoline-3-carbonitrile]: the EC50 in assay [1] (setting [3]) was 38 nM. For the same molecule, in assay [2] (setting [5]), the IC50 came out at 2 nM.

With `N#Cc1ccc([C@H](Nc2cc(Cl)c3ncc(C#N)c(Nc4ccc(Cl)c(Cl)c4F)c3c2)c2c[nH]nn2)cc1` [Example 464, (S)-8-chloro-6-(((4-cyanophenyl)(1H-1,2,3-triazol-4-yl)methyl)amino)-4-((3,4-dichloro-2-fluorophenyl)amino) quinoline-3-carbonitrile], the EC50 in assay [1] (setting [3]) is 694 nM. Moreover, the half-maximal inhibitory concentration (IC50) in assay [2] (setting [4]) was 61 nM.

Take `N#Cc1cnc2c(Cl)cc(N[C@@H](c3ccc(F)cc3)c3cn(CC4(O)CC4)nn3)cc2c1Nc1cnc(F)c(F)c1` [Example 384, (S)-8-chloro-4-((5,6-difluoropyridin-3-yl)amino)-6-(((4-fluorophenyl)(1-((1-hydroxycyclopropyl)methyl)-1H-1,2,3-triazol-4-yl)methyl)amino)quinoline-3-carbonitrile]: the EC50 in assay [1] (setting [3]) is 832 nM. The IC50 in assay [2] (setting [5]) was found to be 8 nM.
